Source: ChEMBL document CHEMBL3399975, “Rational design of specific binding hairpin Py-Im polyamides targeting human telomere sequences” (Bioorg Med Chem, 2015)
pKd: −log10 of the molar value.

Tests used:
[1] = Selectivity ratio of KD for 5'-Biotin-GGTTAAGGTTAGGTTTTCCTAACCTTAACC-3' (unknown origin) to KD for human telomeric sequence
[2] = Binding affinity to human telomeric sequence in HBS-EP buffer at pH 7.4 at 25 degC by SPR analysis
[3] = Binding affinity to 5'-GGTTAGAGTTAGG-3'/3'-CCAATCTCAATCC-5' (unknown origin) assessed as change in melting temperature at pH 7 by UV-Vis spectrophotometry
[4] = Binding affinity to 5'-Biotin-GGTTAGAGTTAGGTTTTCCTAACTCTAACC-3' (unknown origin) in HBS-EP buffer at pH 7.4 at 25 degC by SPR analysis
[5] = Binding affinity to 5'-GGTTAAGGTTAGG-3'/3'-CCAATTCCAATCC-5' (unknown origin) assessed as change in melting temperature at pH 7 by UV-Vis spectrophotometry
Homo sapiens = species on record: Homo sapiens; experiment: Binding affinity to human telomeric sequence assessed as change in melting temperature at pH 7 by UV-Vis spectrophotometry
[6] = Binding affinity to 5'-Biotin-GGTTAAGGTTAGGTTTTCCTAACCTTAACC-3' (unknown origin) in HBS-EP buffer at pH 7.4 at 25 degC by SPR analysis
[7] = Selectivity ratio of KD for 5'-Biotin-GGTTAGAGTTAGGTTTTCCTAACTCTAACC-3' (unknown origin) to KD for human telomeric sequence

Q: With CN(CCCN)CCCNC(=O)CCNC(=O)c1cc(NC(=O)c2cc(NC(=O)c3cc(NC(=O)c4cc(NC(=O)[C@H](N)CCNC(=O)c5cc(NC(=O)c6nc(NC(=O)c7nccn7C)cn6C)cn5C)cn4C)cn3C)cn2C)cn1C as the compound, how does the Ratio [1] read?
A: 0.013

Q: What about the pKd [2] of the same compound?
A: 9.37

Q: And the ΔTm [3]?
A: 21.6 °C

Q: What about the pKd [4] of the same compound?
A: 7.97

Q: And the ΔTm [5]?
A: 31.6 °C

Q: What about the ΔTm (Homo sapiens) of the same compound?
A: 27.4 °C

Q: What about the pKd [6] of the same compound?
A: 11.25

Q: And the Ratio [7]?
A: 24.6

Q: With CN(CCCNC(=O)CCNC(=O)c1nc(NC(=O)c2cc(NC(=O)c3cc(NC(=O)c4cc(NC(=O)[C@@H](CCNC(=O)c5cc(NC(=O)c6nc(NC(=O)c7nccn7C)cn6C)cn5C)NC(=O)COCCOCCNC(=O)c5nc(NC(=O)c6cc(NC(=O)c7cc(NC(=O)c8cc(NC(=O)[C@H](N)CCNC(=O)c9cc(NC(=O)c%10nc(NC(=O)c%11nccn%11C)cn%10C)cn9C)cn8C)cn7C)cn6C)cn5C)cn4C)cn3C)cn2C)cn1C)CCCNS(=O)(=O)c1ccc(C2=c3cc4c5c(c3Oc3c2cc2c6c3CCCN6CCC2)CCC[N+]=5CCC4)c(S(=O)(=O)[O-])c1 as the compound, how does the pKd [2] read?
A: 9.03

Q: Which Ratio [1] does the source give for CN(CCCN)CCCNC(=O)CCNC(=O)c1nc(NC(=O)c2cc(NC(=O)c3cc(NC(=O)c4cc(NC(=O)[C@H](N)CCNC(=O)c5cc(NC(=O)c6nc(NC(=O)c7nccn7C)cn6C)cn5C)cn4C)cn3C)cn2C)cn1C here?
A: 0.36

Q: And the pKd [2]?
A: 8.75

Q: What about the ΔTm [3] of the same compound?
A: 22.4 °C

Q: And the pKd [4]?
A: 7.52

Q: What about the ΔTm [5] of the same compound?
A: 29.3 °C

Q: What about the ΔTm (Homo sapiens) of the same compound?
A: 27.8 °C

Q: What about the pKd [6] of the same compound?
A: 9.20

Q: And the Ratio [7]?
A: 17.3

Q: Which results are given for CN(CCCN)CCCNC(=O)CCNC(=O)c1cc(NC(=O)c2cc(NC(=O)c3cc(NC(=O)c4cc(NC(=O)[C@H](N)CCNC(=O)c5cc(NC(=O)c6nc(NC(=O)c7nc(NC(=O)c8nccn8C)cn7C)cn6C)cn5C)cn4C)cn3C)cn2C)cn1C?
A: Ratio [1]: 13.3; pKd [2]: 8.81; ΔTm [3]: 18.3 °C; pKd [4]: 7.29; ΔTm [5]: 24.8 °C; ΔTm (Homo sapiens): 27.7 °C; pKd [6]: 7.68; Ratio [7]: 32.8
